Where a SMILES comes first, the peptide text is derived from it.
Tests used:
[1] = species on record: Rattus norvegicus; test: Percent recovery after 2 min of incubation in a rat intestinal mucosa suspension at 37 degree Centigrade; assay type: functional, organism-based
[2] = Percent of oral bioavailability up to 1000 mg/day; assay type: ADME, organism-based; conditions: eutheria, in vivo
[3] = tested on: Rattus norvegicus; test: Reduction of (+)-methamphetamine-induced rotational counts on unilateral-lesion rats at a dose of 4.20 mg/Kg after 1 h; assay type: functional
[4] = species on record: Rattus norvegicus; test: Dimensionless membrane permeability (Pm) from in situ single-pass rat jejunal perfusion at a concentration of 0.1 mM; assay type: functional, organism-based
[5] = Net water uptake by a carrier mediated transport (%cm) mechanism; assay type: ADME; conditions: buffer
[6] = tested on: Rattus norvegicus; test: Reduction of (+)-methamphetamine-induced rotational counts on unilateral-lesion rats at a dose of 9.60 mg/Kg after 1 h; assay type: functional
[7] = species on record: Rattus norvegicus; test: Percent recovery after 90 min of incubation in a rat intestinal mucosa suspension at 37 degree Centigrade; assay type: functional, organism-based
[8] = tested on: Rattus norvegicus; test: Reduction of (+)-methamphetamine-induced rotational counts on unilateral-lesion rats at a dose of 9.60 mg/Kg after 2 h; assay type: functional

SMILES	Recovery [1]	bioavailability [2]	Counts of rotation [3]	Permeability [4]	Activity [5]	Counts of rotation [6]	Recovery [7]	Counts of rotation [8]
NCC(=O)N[C@@H](Cc1ccccc1)C(=O)O (H-Gly-Phe-OH)	19%							
N[C@@H](Cc1ccc(O)c(O)c1)C(=O)O [LEVODOPA]		33%	287 turns hr-1	5.38	0.03%			
N[C@@H](C(=O)N1CCC[C@H]1C(=O)N[C@H](Cc1ccc(O)c(O)c1)C(=O)O)c1ccc(O)cc1				1.53	1.64%	223 turns hr-1	95%	247 turns hr-1

From ChEMBL document CHEMBL1128829, “Synthesis and pharmacological activities of a novel tripeptide mimetic dopamine prodrug” (Bioorg Med Chem Lett, 1995)
